According to publication PMC6982876, “Synthesis of Novel Benzodifuranyl; 1,3,5-Triazines; 1,3,5-Oxadiazepines; and Thiazolopyrimidines Derived from Visnaginone and Khellinone as Anti-Inflammatory and Analgesic Agents” (Molecules, 2020):
Marks after values point to notes of the source that are not given here.

Legend:
[1] = test system: acetic acid-induced writhing in mice; experiment: Acetic acid-induced writhing test (analgesic activity); type: in vivo; settings: 10 mg/kg p.o., n = 5; for Writhing Number in 20 min (Mean ± SEM): acetic acid 1 h after dosing; for Analgesic Activity (% protection): writhing test
Experimental: The analgesic activity of the compounds was performed using the writhing test as described by Gawade et al.. Mice weight ranged from 25 to 30 g. Then, mice were divided into 18 different groups, each containing five animals. The animals fasted for 8 h before the experiment. Administration of the compounds (10 mg/kg, p.o.) was performed orally. Equal doses of diclofenac as the reference drug and saline as a negative control were also administrated orally. Writhing was induced one hour after compound administration by using 0.1 mL of 1% glacial acetic acid at a volume of 0.1 mL/10 g body weight. The number of writhing responses (stretching of the abdomen, extension of hind limbs, twisting of the trunk, and elongation of the body) observed was counted for 20 min. The protection percentile against acetic acid-induced writhing was calculated according to the following formula: (1) Analgesic activity (%) =n−n′/n×100* where n is the mean number of writhes of the control group, and n’ is the mean number of writhes of the tested compound group.

[2] = target: T1, human recombinant COX-2 (Homo sapiens, UniProt P35354); experiment: In vitro COX inhibitor screening assay (EIA kit, Cayman), COX-2; type: biochemical; settings: for COX2 (SI) selectivity index: COX-1 IC50 / COX-2 IC50; for IC50: COX-2, mean of two determinations, enzyme kit, read-out: COX2 IC50
T1 construct: purchased Cayman Chemical, Ann Arbor, MI, USA 560131
T1 sequence (P35354 18-604): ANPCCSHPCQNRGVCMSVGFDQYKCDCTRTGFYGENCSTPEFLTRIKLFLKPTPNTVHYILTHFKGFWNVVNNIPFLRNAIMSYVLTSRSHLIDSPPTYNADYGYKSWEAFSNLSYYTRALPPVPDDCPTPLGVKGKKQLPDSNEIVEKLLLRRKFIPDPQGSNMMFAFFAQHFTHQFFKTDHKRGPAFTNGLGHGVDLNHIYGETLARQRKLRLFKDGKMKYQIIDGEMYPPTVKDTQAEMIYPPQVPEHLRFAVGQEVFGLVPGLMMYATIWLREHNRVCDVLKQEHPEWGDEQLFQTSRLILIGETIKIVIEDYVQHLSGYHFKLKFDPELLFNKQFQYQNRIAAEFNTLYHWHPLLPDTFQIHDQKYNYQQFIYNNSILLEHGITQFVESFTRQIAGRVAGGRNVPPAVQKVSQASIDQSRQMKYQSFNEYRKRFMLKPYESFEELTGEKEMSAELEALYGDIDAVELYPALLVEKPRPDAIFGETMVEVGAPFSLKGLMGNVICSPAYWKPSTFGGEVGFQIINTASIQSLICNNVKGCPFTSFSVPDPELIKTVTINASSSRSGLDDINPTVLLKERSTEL
Experimental: (§1) Furthermore, the selectivity index for COX-2 (COX-1 IC50 / COX-2 IC50) was calculated for the compounds.

[3] = test system: interleukin-1 beta (IL-1 β); experiment: ELISA of serum interleukin-1 beta after paw edema test; type: in vivo, rats; settings: rat serum at the end of the paw edema test, mean ± SEM, n = 5
Experimental: IL1 is one of the important inflammatory mediators and is used to confirm the anti-inflammatory activities of new anti-inflammatory compounds. At the end of the paw edema test, blood samples were collected from the orbital axis of the eye under light ether anesthesia. Sera were separated after centrifugation of blood at 5000 rpm for 15 min; the sera were stored at –80 °C until the ELISA assay was performed according to the manufacturer instructions.

[4] = target: T2, ovine COX-1 (Ovis aries, UniProt P05979); experiment: In vitro COX inhibitor screening assay (EIA kit, Cayman), COX-1; type: biochemical; settings: mean of two determinations, enzyme kit, read-out: COX1 IC50
T2 construct: purchased Cayman Chemical, Ann Arbor, MI, USA 560131
T2 sequence (P05979 25-600): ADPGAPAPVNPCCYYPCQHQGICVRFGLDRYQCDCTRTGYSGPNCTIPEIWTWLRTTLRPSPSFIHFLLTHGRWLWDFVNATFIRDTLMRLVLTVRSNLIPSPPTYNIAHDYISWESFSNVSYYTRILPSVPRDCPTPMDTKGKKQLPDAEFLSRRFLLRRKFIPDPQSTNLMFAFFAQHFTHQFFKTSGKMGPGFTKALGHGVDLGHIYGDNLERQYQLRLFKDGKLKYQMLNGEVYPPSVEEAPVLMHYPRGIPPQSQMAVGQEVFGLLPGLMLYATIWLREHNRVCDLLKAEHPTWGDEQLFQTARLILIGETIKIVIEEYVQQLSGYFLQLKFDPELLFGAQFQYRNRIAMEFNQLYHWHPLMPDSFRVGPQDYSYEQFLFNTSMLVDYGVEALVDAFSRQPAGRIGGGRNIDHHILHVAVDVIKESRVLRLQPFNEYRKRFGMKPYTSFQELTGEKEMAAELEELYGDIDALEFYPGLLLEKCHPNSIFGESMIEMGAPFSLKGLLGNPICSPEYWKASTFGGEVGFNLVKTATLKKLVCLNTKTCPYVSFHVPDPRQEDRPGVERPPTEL
Experimental: as §1

[5] = test system: carrageenan-induced paw edema in rats; experiment: Carrageenan-induced paw edema (anti-inflammatory activity); type: in vivo; settings: 10 mg/kg oral; for % Change in Paw Height (Mean ± SEM): n = 5
Experimental: Albino rats (150–180 g) were used. The rats were divided into 11 experimental groups of five rats each. One hour after oral administration of the compounds (10 mg/kg), 0.1 mL of 1% carrageenan solution was injected in the left hind paw of each animal. Rat paw volumes were measured with a digital caliber plethysmometer (UGO Basile, Varese, Italy) used to measure inflammation height at 0, 1, 2, and 3 h after carrageenan injection. The percentage increase in inflammation in the left hind paw, in comparison to the uninjected right hind paw, was determined, calculated, and expressed as the amount of inflammation. […] The anti-inflammatory activity of the selected analgesic compounds after 3 h was expressed as percentage inhibition of edema, which was calculated according to the following equation: (2) Inhibition of edema (%) =Vcont−Vtest/Vcont×100* where V cont is the edema volume in the control group, and V test is the edema volume in the group of the screened compound.

SMILES	Writhing Number in 20 min (Mean ± SEM) [1]	Analgesic Activity (% protection) [1]	melting point [°C]	COX2 (SI) selectivity index [2]	IC50 [2] [µM]	IL-1 β Concentration [3]	IC50 [4] [µM]	% Change in Paw Height (Mean ± SEM) ([5]; 1 hr after carrageenan)	% Change in Paw Height (Mean ± SEM) ([5]; 2 hr after carrageenan)	Anti-Inflammatory Activity (% Inhibition of Edema) ([5]; 3 hr after carrageenan) [%]	% Change in Paw Height (Mean ± SEM) ([5]; 3 hr after carrageenan)
COc1c2ccoc2cc2oc(C(=Nc3cc(N4CCOCC4)nc(N4CCOCC4)n3)N3CCOCC3)c(C)c12 [Compound 10b, N-(2,6-dimorpholinopyrimidin-4-yl)-1-(4-methoxy-3-methylbenzo [1,2-b: 5,4-b`]difuran-2-yl)-1-morpholinomethanimine]	27 ± 1.1 ^a	48 ± 1.5 ^a %	> 350	96	0.048	33 ± 0.38 ^b Pg /mL	4.6	0.21 ± 0.02 ^a %	0.16 ± 0.01 ^a %	65	0.18 ± 0.01 ^a %
COc1c2ccoc2cc2oc(C(=O)Nc3cc(=O)[nH]c(SCC(=O)O)n3)c(C)c12 [Compound 6a, 2-((4-(4-methoxy-3-methylbenzo [1,2-b: 5,4-b`]difuran-2-carboxamido)-6-oxo-1,6-dihydropyrimidin-2-yl)thio) acetic acid]	50 ± 1.6 ^a,b	25 ± 0.50%	278 to 280	51	0.345		17.5	0.39 ± 0.01 ^a %	0.32 ± 0.02 ^a %	35	0.41 ± 0.02 ^a %
COc1c(C(C)=O)c(OCC(=O)Nc2cc(=O)[nH]c(=S)[nH]2)c(OC)c2occc12 [Compound 4b, 2-((5-acetyl-4,7-dimethoxybenzofuran-6-yl)oxy)-N-(6-oxo-2-thioxo-1,2,3,6-tetrahydropyrimidin-4-yl) acetamide]	56 ± 1.2 ^a,b	19 ± 1.30%	186 to 188	45	0.411		18.5	0.47 ± 0.04 ^a %	0.38 ± 0.03 ^a %	26	0.47 ± 0.01 ^a %
COc1c2ccoc2cc2oc(C(=O)Nc3cc(=O)[nH]c(=S)[nH]3)c(C)c12 [Compound 5a, 4-methoxy-3-methyl-N-(6-oxo-2-thioxo-1,2,3,6-tetrahydropyrimidin-4-yl) benzo [1,2-b: 5,4-b`] difuran-2-carboxamide]	54 ± 1.6 ^a,b	21 ± 2.10%	245 to 247	48	0.375		18.1	0.45 ± 0.03 ^a %	0.36 ± 0.02 ^a %	28	0.46 ± 0.02 ^a %
COc1c(C(C)=O)c(OCC(=O)Nc2cc(=O)[nH]c(=S)[nH]2)cc2occc12 [Compound 4a, 2-((5-acetyl-4-methoxybenzofuran-6-yl)oxy)-N-(6-oxo-2-thioxo-1,2,3,6-tetrahydropyrimidin-4-yl) acetamide]		18 ± 1.20%	170 to 172	41	0.46		18.8		0.40 ± 0.02 ^a %		0.49 ± 0.02 ^a %
COc1c2occc2c(OC)c2c(C)c(C(=Nc3cc(N4CCNCC4)nc(N4CCNCC4)n3)N3CCNCC3)oc12 [Compound 10c, N-(2,6-di (piperazin-1-yl)pyrimidin-4-yl)-1-(4,8-dimethoxy-3-methylbenzo [1,2-b: 5,4-b`]difuran-2-yl)-1-(piperazin-1-yl) methanimine]	24 ± 1.5 ^a	51 ± 1.4 ^a %				30 ± 0.70 ^b Pg /mL	4.15	0.18 ± 0.01 ^a %	0.13 ± 0.02 ^a %	68	0.15 ± 0.02 ^a %
COc1c2occc2c(OC)c2c(C)c(C(Cl)=Nc3cc(Cl)nc(=S)[nH]3)oc12 [Compound 8b, N-(6-chloro-2-thioxo-2,3-dihydropyrimidin-4-yl)-4,8-dimethoxy-3-methylbenzo [1,2-b: 5,4-b`] difuran-2-carbimidoyl chloride]	47 ± 2.2 ^a,b	28 ± 0.95%	347 to 349	63	0.245		15.5	0.36 ± 0.01 ^a %	0.29 ± 0.02 ^a %	42	0.35 ± 0.02 ^a %
